Reference: EPA's CvTdb concentration-time database

Experiments:
Test in all cases: concentration in plasma after dosing
Rat [1] = conditions: dosed: 4-methylimidazole, 10 mg/kg, iv, Male, Harlan Sprague Dawley
Rat [2] = conditions: dosed: 4-methylimidazole, 10 mg/kg, iv, Male, Harlan Sprague Dawley; remark: listed apart in the source
Rat [3] = conditions: 0.5 h; dosed: 4-methylimidazole; 10 mg/kg; iv; Male; Harlan Sprague Dawley
Rat [4] = conditions: dosed: 4-methylimidazole, 10 mg/kg, iv, Male, Harlan Sprague Dawley; remark: listed apart in the source
Rat [5] = conditions: dosed: 4-methylimidazole, 10 mg/kg, iv, Male, Harlan Sprague Dawley; remark: listed apart in the source
Rat [6] = conditions: dosed: 4-methylimidazole, 10 mg/kg, iv, Male, Harlan Sprague Dawley; remark: listed apart in the source
Rat [7] = conditions: dosed: 4-methylimidazole, 10 mg/kg, iv, Male, Harlan Sprague Dawley; remark: listed apart in the source
Rat [8] = conditions: dosed: 4-methylimidazole, 10 mg/kg, iv, Male, Harlan Sprague Dawley; remark: listed apart in the source
Rat [9] = conditions: dosed: 4-methylimidazole, 10 mg/kg, iv, Male, Harlan Sprague Dawley; remark: listed apart in the source
Rat [10] = conditions: dosed: 4-methylimidazole, 10 mg/kg, iv, Female, Harlan Sprague Dawley
Rat [11] = conditions: dosed: 4-methylimidazole, 10 mg/kg, iv, Male, Harlan Sprague Dawley; remark: listed apart in the source
Rat [12] = conditions: 0.75 h; dosed: 4-methylimidazole; 10 mg/kg; iv; Male; Harlan Sprague Dawley
Rat [13] = conditions: dosed: 4-methylimidazole, 10 mg/kg, iv, Male, Harlan Sprague Dawley; remark: listed apart in the source
Rat [14] = conditions: dosed: 4-methylimidazole, 10 mg/kg, iv, Male, Harlan Sprague Dawley; remark: listed apart in the source
Rat [15] = conditions: dosed: 4-methylimidazole, 10 mg/kg, iv, Male, Harlan Sprague Dawley; remark: listed apart in the source
Rat [16] = conditions: dosed: 4-methylimidazole, 10 mg/kg, iv, Male, Harlan Sprague Dawley; remark: listed apart in the source
Rat [17] = conditions: dosed: 4-methylimidazole, 10 mg/kg, iv, Male, Harlan Sprague Dawley; remark: listed apart in the source
Rat [18] = conditions: dosed: 4-methylimidazole, 10 mg/kg, iv, Male, Harlan Sprague Dawley; remark: listed apart in the source
Rat [19] = conditions: dosed: 4-methylimidazole, 10 mg/kg, iv, Male, Harlan Sprague Dawley; remark: listed apart in the source
Rat [20] = conditions: 0.75 h; dosed: 4-methylimidazole; 10 mg/kg; iv; Male; Harlan Sprague Dawley; remark: listed apart in the source
Rat [21] = conditions: dosed: 4-methylimidazole, 10 mg/kg, iv, Male, Harlan Sprague Dawley; remark: listed apart in the source
Rat [22] = conditions: dosed: 4-methylimidazole, 10 mg/kg, iv, Male, Harlan Sprague Dawley; remark: listed apart in the source
Rat [23] = test system: Rat
Rat [24] = conditions: dosed: 4-methylimidazole, 10 mg/kg, iv, Male, Harlan Sprague Dawley; remark: listed apart in the source
Rat [25] = conditions: dosed: 4-methylimidazole, 10 mg/kg, iv, Male, Harlan Sprague Dawley; remark: listed apart in the source
Rat [26] = conditions: dosed: 4-methylimidazole, 10 mg/kg, iv, Male, Harlan Sprague Dawley; remark: listed apart in the source
Rat [27] = conditions: 0.5 h; dosed: 4-methylimidazole; 10 mg/kg; iv; Male; Harlan Sprague Dawley; remark: listed apart in the source
Rat [28] = conditions: dosed: 4-methylimidazole, 10 mg/kg, iv, Female, Harlan Sprague Dawley; remark: listed apart in the source
Rat [29] = conditions: dosed: 4-methylimidazole, 10 mg/kg, iv, Male, Harlan Sprague Dawley; remark: listed apart in the source
Rat [30] = conditions: dosed: Oxazepam, 200 mg/kg, oral, Male, F344
Rat [31] = conditions: dosed: Oxazepam, 50 mg/kg, oral, Male, F344
Rat [32] = conditions: dosed: Oxazepam, 50 mg/kg, oral, Female, F344
Rat [33] = conditions: dosed: Oxazepam, 50 mg/kg, oral, Female, F344; remark: listed apart in the source
Rat [34] = conditions: dosed: Oxazepam, 50 mg/kg, oral, Female, F344; remark: listed apart in the source
Rat [35] = conditions: dosed: Oxazepam, 200 mg/kg, oral, Female, F344
Rat [36] = conditions: dosed: Oxazepam, 50 mg/kg, oral, Male, F344; remark: listed apart in the source
Rat [37] = conditions: dosed: Oxazepam, 50 mg/kg, oral, Male, F344; remark: listed apart in the source
Rat [38] = conditions: dosed: Oxazepam, 50 mg/kg, oral, Female, F344; remark: listed apart in the source
Rat [39] = conditions: dosed: Oxazepam, 200 mg/kg, oral, Female, F344; remark: listed apart in the source
Rat [40] = conditions: dosed: Oxazepam, 200 mg/kg, oral, Female, F344; remark: listed apart in the source
Rat [41] = conditions: 3.5 h; dosed: Oxazepam; 50 mg/kg; oral; Female; F344
Rat [42] = conditions: dosed: Oxazepam, 50 mg/kg, oral, Male, F344; remark: listed apart in the source
Rat [43] = conditions: dosed: Oxazepam, 200 mg/kg, oral, Male, F344; remark: listed apart in the source
Rat [44] = conditions: dosed: Oxazepam, 50 mg/kg, oral, Female, F344; remark: listed apart in the source
Rat [45] = conditions: dosed: Oxazepam, 200 mg/kg, oral, Female, F344; remark: listed apart in the source
Rat [46] = conditions: dosed: Oxazepam, 200 mg/kg, oral, Male, F344; remark: listed apart in the source
Rat [47] = conditions: dosed: Oxazepam, 400 mg/kg, oral, Male, F344
Rat [48] = conditions: dosed: Oxazepam, 200 mg/kg, oral, Male, F344; remark: listed apart in the source
Rat [49] = conditions: dosed: Oxazepam, 200 mg/kg, oral, Male, F344; remark: listed apart in the source
Rat [50] = conditions: dosed: Oxazepam, 200 mg/kg, oral, Male, F344; remark: listed apart in the source
Rat [51] = conditions: dosed: Oxazepam, 200 mg/kg, oral, Female, F344; remark: listed apart in the source
Rat [52] = conditions: dosed: Oxazepam, 200 mg/kg, oral, Female, F344; remark: listed apart in the source
Rat [53] = conditions: 3.5 h; dosed: Oxazepam; 50 mg/kg; oral; Male; F344
Rat [54] = conditions: 1 h; dosed: Oxazepam; 50 mg/kg; oral; Female; F344
Rat [55] = conditions: dosed: Oxazepam, 200 mg/kg, oral, Female, F344; remark: listed apart in the source
Rat [56] = conditions: dosed: Oxazepam, 400 mg/kg, oral, Female, F344
Rat [57] = conditions: dosed: Oxazepam, 200 mg/kg, oral, Female, F344; remark: listed apart in the source
Rat [58] = conditions: 2 h; dosed: Oxazepam; 50 mg/kg; oral; Male; F344
Rat [59] = conditions: dosed: Oxazepam, 200 mg/kg, oral, Male, F344; remark: listed apart in the source
Rat [60] = conditions: 3.5 h; dosed: Oxazepam; 50 mg/kg; oral; Male; F344; remark: listed apart in the source
Rat [61] = conditions: dosed: Oxazepam, 50 mg/kg, oral, Male, F344; remark: listed apart in the source
Rat [62] = conditions: dosed: Oxazepam, 400 mg/kg, oral, Female, F344; remark: listed apart in the source
Rat [63] = conditions: dosed: Oxazepam, 50 mg/kg, oral, Female, F344; remark: listed apart in the source
Rat [64] = conditions: dosed: Oxazepam, 400 mg/kg, oral, Male, F344; remark: listed apart in the source
Rat [65] = conditions: dosed: Oxazepam, 200 mg/kg, oral, Male, F344; remark: listed apart in the source

Cc1cnc[nH]1 [4-methylimidazole]
Conditions	concentration in plasma [ng/mL]
Rat [1], 4 h	1490
Rat [1], 10 min	7840
Rat [2], 1 h	4110
Rat [2], 7 min	7090
Rat [4], 4 h	647
Rat [4], 20 min	6930
Rat [5], 2 h	3520
Rat [5], 10 min	6960
Rat [6], 6 h	148
Rat [6], 20 min	6950
Rat [7], 4 h	611
Rat [7], 10 min	8520
Rat [8], 0.75 h	3040
Rat [8], 8 h	656
Rat [9], 0.75 h	4780
Rat [9], 2 min	11800
Rat [10], 1 h	6380
Rat [10], 2 min	10500
Rat [11], 2 h	2460
Rat [11], 10 min	7010
Rat [13], 2 h	2740
Rat [13], 7 min	8150
Rat [14], 2 h	3340
Rat [14], 7 min	8240
Rat [15], 0.75 h	5620
Rat [15], 8 h	74.3
Rat [16], 4 h	1720
Rat [16], 10 min	7910
Rat [17], 6 h	116
Rat [17], 20 min	6840
Rat [18], 6 h	112
Rat [18], 20 min	7340
Rat [19], 4 h	960
Rat [19], 20 min	5890
Rat [21], 0.5 h	5280
Rat [21], 6 h	108
Rat [22], 1 h	4610
Rat [22], 2 min	12200
Rat [24], 1 h	4070
Rat [24], 2 min	10200
Rat [25], 0.5 h	5440
Rat [25], 8 h	88.2
Rat [26], 0.5 h	5620
Rat [26], 6 h	162
Rat [28], 1 h	5190
Rat [28], 2 min	12000
Rat [29], 2 h	2740
Rat [29], 7 min	8840

Conditions	concentration in plasma [ng/mL]
Rat [3]	5420
Rat [12]	5440
Rat [20]	6160
Rat [27]	5770

concentration in plasma [ng/mL], Rat [23], dosed: 4-methylimidazole, 10 mg/kg, iv, Harlan Sprague Dawley
Conditions	Female	Male
0.5 h	–	7300
0.75 h	–	6210
1 h	4810	–
2 h	–	2060
2 min	–	9350
4 h	–	690
6 h	–	454
7 min	8000	9000
8 h	–	205
10 min	–	8770
20 min	–	6950

O=C1Nc2ccc(Cl)cc2C(c2ccccc2)=NC1O (centres undefined) [Oxazepam]
Conditions	concentration in plasma [ng/mL]
Rat [30], 6 h	1960
Rat [30], 20 min	1020
Rat [31], 1 h	1280
Rat [31], 10 h	520
Rat [32], 1 h	1610
Rat [32], 10 h	820
Rat [33], 3.5 h	710
Rat [33], 24 h	450
Rat [34], 2 h	3640
Rat [34], 18 h	270
Rat [35], 1 h	2880
Rat [35], 10 h	3470
Rat [36], 6 h	580
Rat [36], 20 min	400
Rat [37], 6 h	510
Rat [37], 20 min	290
Rat [38], 6 h	1630
Rat [38], 20 min	760
Rat [39], 3.5 h	4280
Rat [39], 24 h	1460
Rat [40], 3.5 h	2990
Rat [40], 24 h	10000
Rat [42], 2 h	990
Rat [42], 18 h	370
Rat [43], 1 h	1630
Rat [43], 10 h	2030
Rat [44], 2 h	1620
Rat [44], 18 h	270
Rat [45], 2 h	2840
Rat [45], 18 h	760
Rat [46], 2 h	2210
Rat [46], 18 h	1850
Rat [47], 1 h	3500
Rat [47], 10 h	1790
Rat [48], 3.5 h	10500
Rat [48], 24 h	1320
Rat [49], 1 h	2310
Rat [49], 10 h	1250
Rat [50], 6 h	2020
Rat [50], 20 min	1470
Rat [51], 6 h	4550
Rat [51], 20 min	1250
Rat [52], 2 h	3340
Rat [52], 18 h	3360
Rat [55], 6 h	1000
Rat [55], 20 min	1200
Rat [56], 1 h	3270
Rat [56], 10 h	4280
Rat [57], 1 h	2300
Rat [57], 10 h	1720
Rat [59], 2 h	2130
Rat [59], 18 h	3140
Rat [61], 1 h	950
Rat [61], 10 h	390
Rat [62], 1 h	4120
Rat [62], 10 h	5630
Rat [63], 6 h	1560
Rat [63], 20 min	880
Rat [64], 1 h	2440
Rat [64], 10 h	3960
Rat [65], 3.5 h	2630
Rat [65], 24 h	520

Conditions	concentration in plasma [ng/mL]
Rat [41]	2510
Rat [53]	1260
Rat [54]	1290
Rat [58]	990
Rat [60]	1070

concentration in plasma [ng/mL], Rat [23], dosed: Oxazepam, oral, F344
Conditions	1 h	2 h	3.5 h	6 h	10 h	18 h	20 min	24 h
50 mg/kg, Female	2850	1900	1170	1230	1380	280	560	–
50 mg/kg, Male	1230	1000	910	680	330	–	450	590
200 mg/kg, Female	3020	3870	2700	3910	5160	5030	1250	5000
200 mg/kg, Male	2370	–	3150	1580	1890	730	600	2280
400 mg/kg, Female	4100	–	–	–	4480	–	–	–
400 mg/kg, Male	3070	–	–	–	2910	–	–	–
